The nature of one data set: Solubility in solvents. Format: physicochemical.
Data set [1] concerns Botrytis cinerea. The data set can be described thus: Test for controlling gray mold on cucumber (curative test). Type of data set: in vivo. To be noted: (1-length treated/untreated)×100. On the procedure: Test for Controling Gral Mold (Botrytis cinerea) on Cucumber (Curative Test)
The first leaf was plucked off from 1.5 leaf-sage cucumber (variety: Sgamihanjiro) which had been grown in a 7 cm-diameter pot, and a mycelia disk of Botrytis cinerea was inoculated in the same manner as in the Experiment 1. Then, the cucumber leaf was allowed to stand for 2 days at 20° C. in a moist chamber, and when the disease spots reached approximately […] in diameter, a drug solution produced by deluting an emulsion containing the present compound with water to the desired concentration was sprayed at 10 ml per leaf using a spray gun, and after drying in air the leaf was allowed to stand for 3 days at 20° C. in a moist chamber.
The lengths of the newly developed diseases spots were measured, and the preventive value was determined using the following equation.
Preventive value=(1-length of diseased spots of drug-treated group/length of diseased spots of untreated group)×100

The subject of data set [2] is platelet aggregation (U46619). The data set can be described thus: Anti-platelet aggregation effect, U46619-induced. Format: cell-based, Hartley male guinea-pigs. To be noted: Cavia porcellus; U46619 0.5 μM; guinea-pig platelet rich plasma, 37° C., 0.5% DMSO. On the procedure:
(§1) Blood was collected from the abdominal artery of Hartley male guinea-pigs (weight: about 300 g) into a syringe containing 1/10 volume 3.8% sodium citrate. The blood thus obtained was subjected to a centrifugation at 160×g for 10 minutes at room temperature to obtain platelet rich plasma (PRP). Furthermore, the residue was subjected to a centrifugation at 1500×g for 15 minutes to obtain platelet poor plasma (PPP). The measurement was carried out by diluting PRP with PPP to 300,000/mm^3. The measurement range of transmittance was adjusted to 0% in the case of PRP and to 100% in the case of PPP. Thereafter, a test compound dissolved in 100% dimethylsulfoxide (DMSO) was added to PRP (the final concentration of DMSO: 0.5%). After incubation at 37° C., 1000 rpm for 2 minutes, an aggregating agent was added to measure an aggregation curve. The anti-platelet aggregation effect of the test compound was expressed by a concentration (IC50 :μM) at which the aggregation of control was 50% inhibited. The aggregating agents used were ADP (the final concentration: 5 μM), collagen (the final concentration: 2 μg/ml) and U46619 (the final concentration: 0.5 μM). The measurement of platelet aggregation was carried out using NBS HEMA Tracer 601.

Data set [3] deals with Botrytis cinerea. The data set can be described thus: Test for controlling gray mold on cucumber (prevention test). Type of data set: in vivo. To be noted: (1-diameter treated/untreated)×100. As for the experimental part: Test for Controlling Gray Mold (Botrytis cinerea) on Cucumber (Prevention Test)
(§2) Onto 1.5 leaf-stage cucumber (variety: Sagamihanjiro) which had been grown in a 7 cm-diameter pot was sprayed, using a spray gun, a drug solution produced by diluting an emulsifiable concentrate containing the present compound with water to the predetermined concentration, at 10 ml per pot.
(§3) On the following day, the first leaf on which was sprayed the drug solution was plucked off, and onto the surface of the leaf was inoculated a mycelia disk which had been prepared from the tip of a cell cluster of Botrytis cinerea cultured at 20° C. for 2 days in a PSA (potato sucrose agar) medium using a 4 mm-diameter cork borer. Then, the cucumber leaf was allowed to stand for 5 days at 20° C. in a moist chamber, the diameter of the diseased spots which formed were measured, and the degree of control was determined according to the following equation. Here, iprodion (trade name: Lobral) was used as a control preparation.
Preventive value=(1-diameter of disease spots of drug-treated group/diameter of disease spots of untreated group)×100

In data set [4] the test system is cucumber. The data set can be described thus: Toxicity in gray mold prevention test on cucumber. Type of data set: in vivo, cucumber (variety: Sagamihanjiro). On the procedure: as §2, §3
The subject of the next data set is Sclerotinia cinerea. The data set can be described thus: Minimum growth inhibition concentration, agar plate dilution method. Format: cell-based. The text has this:
(§4) The measurement of the minimum growth inhibition concentration (MIC) was made following the agar plate dilution method using an agar medium containing the compound A.

Another data set concerns Rhynchosporium secalis. The description is as above. Type of data set: cell-based.
Description: as §4

Data set [5] concerns Sclerotinia sclerotiorum. Described as above. Format: cell-based.
Description: as §4

Another data set concerns Aspergillus nigar. The data set is described as above. Type of data set: cell-based.
Description: as §4

For data set [6], the system named is Botrytis cinerea. The description is as above. Type of data set: cell-based.
Description: as §4

For data set [7], the system named is platelet aggregation (ADP). The data set can be described thus: Anti-platelet aggregation effect, ADP-induced. Type of data set: cell-based, Hartley male guinea-pigs. To be noted: Cavia porcellus; ADP 5 μM; guinea-pig platelet rich plasma, 37° C., 0.5% DMSO. As for the experimental part:
as §1

The test system of data set [8] is platelet aggregation (collagen). The data set can be described thus: Anti-platelet aggregation effect, collagen-induced. Format: cell-based, Hartley male guinea-pigs. To be noted: Cavia porcellus; collagen 2 μg/ml; guinea-pig platelet rich plasma, 37° C., 0.5% DMSO. On the procedure:
as §1

In data set [9] the test system is cucumber. The data set can be described thus: Toxicity in Sclerotinia rot prevention test on cucumber. Type of data set: in vivo, cucumber (variety: Sagamihanjiro). On the procedure: as §2
(§5) On the following day, the first leaf on which was sprayed the drug solution was plucked off, and onto the surface of the leaf was inoculated a mycelia disk which had been prepared from the tip of a cell cluster of Sclerotinia sclerotiorum cultured at 20° C. for 1 day in a PSA medium by using a 4 mm-diameter cork borer. Then, the cucumber leaf was allowed to stand for 3 days at 20° C. in a moist chamber, the diameter of the disease spots which formed were measured measured, and the preventive value was determined according to the following equation.

Data set [10] relates to Sclerotinia sclerotiorum. The data set can be described thus: Test for controlling cucumber Sclerotinia rot (prevention test). Format: in vivo. To be noted: Sclerotinia rot on cucumber, (1-diameter treated/untreated)×100. On the procedure:
Test for Controling Cucumber Sclerotinia Rot (Sclerotinia sclerotiorum) (Prevention Test)
as §2, §5
Preventive value=(1-diameter of diseased spots of drug-treated group/diameter of disease spots of untreated group)×100

In brackets after ≈: the same amount, converted by molar mass.

In the case of `CCCCC1CC2=C(C(=O)OC2=O)C(C(O)CCCC)CC2=C1C(=O)OC2=O` (stereo not drawn) [Compound A], the Solubility in solvents result in “Solubility in solvents” (chloroform, ethyl acetate, methanol) is recorded as “readily soluble”; in “Solubility in solvents” (water), “sparingly soluble”. The Preventive value with Botrytis cinerea [1] (50 ppm spraying) was determined as 73; with Botrytis cinerea [1] (100 ppm spraying), 79; with Botrytis cinerea [3] (25 ppm spraying), 100; in the data set on Botrytis cinerea [3] (50 ppm spraying), 100; in the data set with Botrytis cinerea [3] (100 ppm spraying), 100. In addition, the values for the IC50 in data set [2], in data set [7] and in data set [8] were 484 µM, 187 µM and 42 µM, respectively. For the same molecule, the Toxicity entry with cucumber [4] (25 ppm spraying), in the data set on cucumber [4] (50 ppm spraying) and in the data set on cucumber [4] (100 ppm spraying) was “none” in each case. The MIC (as a rule, the least concentration at which growth counts as inhibited) in the data set on Sclerotinia cinerea was 3.13 µg/mL (≈ 8.02 µM); in the data set on Rhynchosporium secalis it was 1.56 µg/mL (≈ 4 µM); in the data set with Sclerotinia sclerotiorum [5], 1.56 µg/mL (≈ 4 µM); against Aspergillus nigar, 3.13 µg/mL (≈ 8.02 µM); in the data set with Botrytis cinerea [6], 0.78 µg/mL (≈ 2 µM).
As to `CC(C)NC(=O)N1CC(=O)N(c2cc(Cl)cc(Cl)c2)C1=O` [Iprodion, iprodion, reference compound], the Preventive value in the data set on Botrytis cinerea [1] (50 ppm spraying) was determined as 70; in the data set with Botrytis cinerea [1] (100 ppm spraying), 75; in the data set with Botrytis cinerea [3] (25 ppm spraying), 25; in the data set with Botrytis cinerea [3] (50 ppm spraying), 95; in the data set with Botrytis cinerea [3] (100 ppm spraying), 100; in the data set on Sclerotinia sclerotiorum [10] (50 ppm spraying) it was 100. The same molecule registered a Preventive value with Sclerotinia sclerotiorum [10] (100 ppm spraying) of 100. Besides, the Toxicity result in the data set with cucumber [9] (50 ppm spraying), in the data set with cucumber [9] (100 ppm spraying), in the data set on cucumber [4] (25 ppm spraying), in the data set with cucumber [4] (50 ppm spraying) and with cucumber [4] (100 ppm spraying) was “none” each time.

These data come from patent US5346919A, “Anti-bacterial substances and microorganisms which produce them” (Nissan Chemical Industries, Ltd., priority 1992, dated 1994).
